{"source": "patent US20120028897A1", "about": "“METHODS AND COMPOSITIONS FOR THE TREATMENT OF FLUID RETENTION DISORDERS” (priority 2008, published 2012)", "key": {"[1]": {"biological_target": "T1, GC-C receptor, GC-C-expressing T84 cell line (Homo sapiens, UniProt P25092)", "T1 construct": "measuring cyclic GMP synthesis in the GC-C-expressing T84 cell line; endogenous in cells; host or cells: T84 colon carcinoma cells", "T1 sequence (P25092 24-1073)": "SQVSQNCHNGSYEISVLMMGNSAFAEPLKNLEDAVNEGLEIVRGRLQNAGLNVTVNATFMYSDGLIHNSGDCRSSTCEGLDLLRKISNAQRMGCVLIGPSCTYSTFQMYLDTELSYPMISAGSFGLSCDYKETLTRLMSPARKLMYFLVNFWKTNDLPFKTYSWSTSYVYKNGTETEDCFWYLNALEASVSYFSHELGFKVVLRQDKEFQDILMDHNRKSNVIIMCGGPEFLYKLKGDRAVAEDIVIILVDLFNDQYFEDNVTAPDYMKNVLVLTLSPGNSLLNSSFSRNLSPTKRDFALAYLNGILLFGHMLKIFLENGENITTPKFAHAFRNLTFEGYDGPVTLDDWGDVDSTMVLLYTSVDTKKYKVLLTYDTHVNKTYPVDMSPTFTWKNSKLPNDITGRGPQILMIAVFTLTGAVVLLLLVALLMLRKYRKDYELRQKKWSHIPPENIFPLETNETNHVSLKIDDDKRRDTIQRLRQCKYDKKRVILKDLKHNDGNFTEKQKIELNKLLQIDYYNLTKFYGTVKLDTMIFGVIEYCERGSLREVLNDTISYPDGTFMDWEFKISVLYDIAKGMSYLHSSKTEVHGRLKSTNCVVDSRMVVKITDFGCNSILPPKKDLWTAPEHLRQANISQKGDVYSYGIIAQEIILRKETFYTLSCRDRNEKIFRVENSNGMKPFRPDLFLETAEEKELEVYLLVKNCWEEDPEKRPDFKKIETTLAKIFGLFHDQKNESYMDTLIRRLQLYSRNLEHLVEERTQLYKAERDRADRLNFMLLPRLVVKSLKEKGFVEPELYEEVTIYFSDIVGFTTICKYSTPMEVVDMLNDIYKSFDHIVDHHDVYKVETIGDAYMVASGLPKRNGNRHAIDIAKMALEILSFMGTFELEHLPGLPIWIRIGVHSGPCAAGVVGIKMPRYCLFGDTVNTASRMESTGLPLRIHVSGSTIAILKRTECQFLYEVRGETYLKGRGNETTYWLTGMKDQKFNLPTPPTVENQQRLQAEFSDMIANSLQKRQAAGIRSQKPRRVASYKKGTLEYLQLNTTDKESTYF", "experiment": "T84 cell cyclic GMP bioassay", "type": "cell-based", "method": "Bioassay of huUgnA-like activity. The concentration of huUgnA-like bioactivity in infused peptide solutions and in urine collected during experiments was measured using a T84 cell-based bioassay, as described previously. T84 cells are a colon carcinoma cell line that increases cyclic GMP production in response to GC-C receptor agonists such as Ugn, Gn and ST core peptide. T84 cells were grown to near confluence in 12 well culture clusters, and then incubated with unknowns or standard concentrations of huUgnA. Standards or urine samples were diluted into bioassay medium (1 mM 3-isobutyl-1-methylxanthine, 0.03 mM phenol red, 137 mM NaCl, 5.4 mM KCl, 0.25 mM Na2HPO4, 0.44 mM KH2PO4, 1.3 mM CaCl2, 1.0 mM MgSO4, 4.2 mM NaHCO3, 10 mM HEPES buffered at pH 7.0) and the pH was adjusted to 7.0, if required, using the phenol red indicator dye as a guide. This pH adjustment was necessary, as it is well-established that the response of T84 cells to UGn is highly pH dependent. The broad spectrum phosphodiesterase inhibitor (isobutyl methylxanthine) was included to prevent degradation of cyclic GMP. After 30 min, the cells were lysed and cyclic GMP levels measured by radioimmunoassay (Biomedical Technologies Inc Stoughton Mass.). Standards and unknowns were assayed in triplicate. […]"}, "Mice": {"system": "Mice", "experiment": "Natriuretic response in mice", "type": "in vivo, mouse"}}}
{"smiles": "CC(C)C[C@H](NC(=O)[C@@H]1CSSC[C@@H]2NC(=O)[C@H](CC(C)C)NC(=O)[C@H](CCC(=O)O)NC(=O)[C@@H](NC(=O)[C@H](CC(=O)O)NC(=O)[C@H](CC(=O)O)NC(=O)[C@@H](N)CC(N)=O)CSSC[C@H](NC(=O)[C@H](C)NC(=O)[C@H](C(C)C)NC(=O)[C@H](CC(N)=O)NC(=O)[C@H](C(C)C)NC2=O)C(=O)N[C@@H]([C@@H](C)O)C(=O)NCC(=O)N1)C(=O)O", "note": "(single isomer, unassigned) [huUgnB, Asn Asp Asp Cys Glu Leu Cys Val Asn Val Ala Cys Thr Gly Cys Leu]", "values": [{"measurement": "T84 cell cGMP response on co-application of huUgnA and B", "setting": "[1]; 25 nM huUgnA with 180 nM huUgnB (FIG. 2B)", "value": "not different from those evoked by huUgnA alone"}, {"measurement": "potency in activating cyclic GMP synthesis, fold less potent than the A isoform", "setting": "[1]; GC-C-expressing T84 cell line", "value": "more than 100 fold"}, {"measurement": "natriuretic response", "setting": "Mice", "value": "exhibit a natriuretic response"}]}
